In one test the target is T1, human platelet PLA2 (Homo sapiens, UniProt P14555).
T1 construct: The PLA2 enriched supernatant fluid is removed and the amount of protein is determined by the Lowry method; from tissue; host or cells: human platelets (expired, blood bank), acid extract, 10,000 g supernatant
T1 sequence (P14555 21-144): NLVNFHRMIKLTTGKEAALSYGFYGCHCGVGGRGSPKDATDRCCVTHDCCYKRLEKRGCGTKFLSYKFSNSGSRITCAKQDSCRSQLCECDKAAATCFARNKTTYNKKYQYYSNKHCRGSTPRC
In words: in vitro inhibition of human platelet PLA2 (hydrolysis of [1-14C] oleic acid-labelled E. coli membrane phospholipids). Format: biochemical. The note with it: pH 7.4, 30 minutes incubation. Here is the method:
The ability of the compounds to inhibit the activity of PLA2 enzyme is measured in the following in vitro assay.
The assay is carried out as follows:
E. coli, cultured to exponential growth, are sedimented for 15 minutes at 10,000 g and resuspended in sterile isotonic saline (1-3 ml). 10-25 μCi [1-^14 C] oleic acid (or arachidonic acid) is added to a sterile flask, evaporated by N2 and resolubilized with 0.3 ml 20% fatty acid-free BSA. 75-100 ml of nutrient broth and 1 ml E. coli are then added to each flask and incubated for 2-3 hours at 37° C. [1-^14 C] oleic acid labelled E. coli are then sedimented, suspended in saline and added to fresh nutrient broth and incubated for 1.5 hours at 37° C. to complete [1-^14 C] oleic acid incorporation into the phospholipids. After overnight refrigeration of cultures, E. coli are again sedimented, suspended in saline and autoclaved for 15 minutes at 120° C. E. coli cultures are washed twice with saline (first wash contains 1% BSA) and resuspended in saline. […] Cell number is determined by measuring the optical density at 550 nm ([…]=1 O.D.). The amount of radioactivity associated with cells is determined by counting a defined volume of cell suspension. […]
Expired human platelets from the blood bank are centrifuged for 15 minutes at 200 g to obtain a platelet rich plasma fraction and to remove the red blood cells. […] The PLA2 enriched supernatant fluid is removed and the amount of protein is determined by the Lowry method. […]
The assay measures the hydrolysis of E. coli membrane phospholipids and the release of free [1-^14 C] oleic acid from the C-2 position of phospholipids by human platelet PLA2. […] Free fatty acid ([1-^14 C] oleic acid labeled phospholipids are visualized with exposure to iodine vapors. Radioactive areas that co-chromatographed with authentic oleic acid and phospholipid standards are cut out and placed in a scintillation vial. One ml CH3 OH and 10 ml Hydrofluor are added to each cut strip and radioactivity is determined by liquid scintillation counting.
The percent hydrolysis is calculated by the following equation: [formula]

Test [1] has as its system lipoxygenase and/or cyclooxygenase pathways of arachidonic acid. In words: arachidonic acid (AA)-induced murine ear edema test. It is filed as in vivo, Swiss Webster female mice. The note with it: 1 mg/ear, drug 30 minutes prior to AA (2 mg/ear), ear thickness measured after 1 hour. The source says: (§1) The ability of the compounds of the invention to inhibit the lipoxygenase and/or cyclooxygenase pathways of arachidonic acid is examined in the in vivo arachidonic acid (AA)-/12-O-tetradecanoylphorbol acetate (TPA)-induced murine ear edema test.
(§2) According to this test, Swiss Webster female mice (Buckshire), approximately 8 weeks old, are placed into plastic boxes in groups of six. Eight groups of mice receive AA topically on the right ear, and another 8 groups receive TPA topically on the right ear. AA and TPA are dissolved in acetone at concentrations of 100 mg/ml ad 100 μg/ml respectively. The phlogistics are applied to the right ear by the means of an automatic pipet. Volumes of 10 μl are applied to the inner and outer surfaces of the ear. Each mouse receives either 2 mg/ear AA or […] TPA. The left ear (control) receives acetone delivered in the same manner. […]
(§3) Measurements are taken with Oditest calipers, 0-10 mm with 0.01 graduations. The right and left ears are measured after 1 hour AA-induced inflammation and 4 hours after TPA-induced inflammation.
(§4) The difference between right and left ear thickness is calculated and the significance is determined by a one way analysis of variance with Dunnett's comparisons to control (P=0.05). Drug effects are expressed as a percent change from control values: [formula]

Test [2] has the same test system. In words: 12-O-tetradecanoylphorbol acetate (TPA)-induced murine ear edema test. Format: in vivo, Swiss Webster female mice. The note with it: 1 mg/ear, drug 30 minutes after TPA (4 μg/ear), ear thickness measured after 4 hours.
From the text: as §1, §2, §3, §4

The term inhibition denotes the relative decrease from the control value, in per cent. Read a low inhibition as a weak effect. The compound `CCCCCCCCCCCCNC(=O)NCCOP1(=O)OCCO1` [Example 1, N-[2-(1,3,2-Dioxaphospholan-2-yloxy)ethyl]-N'-dodecylurea P-oxide] returned an inhibition at 100 µM on human platelet PLA2 of 32%.
The compound `CCCCCCCCCCCCNC(=O)OCCOP1(=O)OCCO1` [Example 2, Dodecylcarbamic acid 2-(1,3,2-dioxaphospholan-2-yloxy)ethyl ester P-oxide] had an inhibition at 100 µM on human platelet PLA2 of 92%. In addition, the “% Change from Control, TOPICAL, AA” value in test [1] is -16%. Besides, the “% Change from Control, TOPICAL, TPA” value in test [2] is recorded as -38%.
The compound `CCCCCCCCCCCCCCCCS(=O)(=O)NCCOP1(=O)OCCO1` [Example 3, N-[2-(1,3,2-dioxaphospholan-2-yloxy)ethyl]-1-hexadecanesulfonamide P-oxide] came in with an inhibition at 100 µM at human platelet PLA2 of 28%.

These data come from patent US4710580A, “2-[1,3,2-dioxaphospholan-2-yloxy]ethyl compounds” (American Home Products Corporation, priority 1986, dated 1987).
